In EP0345153A1, “Affinity markers for hormonal steroid receptors, their use in hormonoradio therapy and as imaging agents of hormone-dependent cancers” (LA REGION WALLONNE, priority 1988, dated 1989):

Legend:
[1] = test system: récepteur de l'oestradiol; test: Relative binding affinity (A.R.L) for the estradiol receptor; conditions: vis-à-vis du récepteur de l'oestradiol
From the text: Dans cette optique, des composés tels que 7 et 8 sont préparés (9b). Ils portent des petits clusters en 17a-et couvrent une gamme de valeurs de PKR+ de -6 pour 7 à +3 pour 8.

[2] = biological target: T1, Récepteur de la progestérone (Homo sapiens, UniProt P06401); conditions: photochemically activated, after 1H; cited from earlier work
T1 sequence (P06401 1-933): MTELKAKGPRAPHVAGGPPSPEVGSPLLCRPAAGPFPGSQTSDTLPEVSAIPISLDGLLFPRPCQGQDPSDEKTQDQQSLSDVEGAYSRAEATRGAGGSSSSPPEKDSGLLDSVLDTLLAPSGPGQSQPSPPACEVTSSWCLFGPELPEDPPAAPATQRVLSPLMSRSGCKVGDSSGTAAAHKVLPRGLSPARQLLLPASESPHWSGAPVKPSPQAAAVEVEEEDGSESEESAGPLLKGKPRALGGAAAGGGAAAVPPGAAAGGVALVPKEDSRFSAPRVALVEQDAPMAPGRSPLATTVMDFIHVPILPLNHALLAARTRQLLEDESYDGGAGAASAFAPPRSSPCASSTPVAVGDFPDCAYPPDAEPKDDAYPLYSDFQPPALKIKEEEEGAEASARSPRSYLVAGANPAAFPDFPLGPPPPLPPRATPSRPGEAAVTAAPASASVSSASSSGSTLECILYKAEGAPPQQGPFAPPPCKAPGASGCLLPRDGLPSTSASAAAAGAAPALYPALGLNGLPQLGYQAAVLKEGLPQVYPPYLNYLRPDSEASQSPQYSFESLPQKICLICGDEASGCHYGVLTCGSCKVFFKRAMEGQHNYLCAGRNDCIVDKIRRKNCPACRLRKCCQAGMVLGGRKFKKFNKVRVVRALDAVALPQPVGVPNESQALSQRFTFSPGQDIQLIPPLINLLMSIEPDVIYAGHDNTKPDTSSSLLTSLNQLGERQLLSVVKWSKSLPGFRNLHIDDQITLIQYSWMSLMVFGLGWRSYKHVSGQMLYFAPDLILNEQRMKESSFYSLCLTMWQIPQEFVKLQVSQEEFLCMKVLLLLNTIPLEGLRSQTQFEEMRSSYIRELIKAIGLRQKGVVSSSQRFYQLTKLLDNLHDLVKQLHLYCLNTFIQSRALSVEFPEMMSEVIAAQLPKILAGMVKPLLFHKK

[3] = test system: récepteur de l'oestradiol; conditions: cited from earlier work
[4] = biological target: T2, récepteurs nucléaires de l'oestradiol d'utérus de brebis (Ovis aries, UniProt A0ACI6Q0N8); test: Irreversible binding to nuclear estradiol receptors in ewe uterus nuclear extract (exchange with 10 nM tritiated estradiol, protamine sulfate precipitation)
T2 sequence (A0ACI6Q0N8 1-596): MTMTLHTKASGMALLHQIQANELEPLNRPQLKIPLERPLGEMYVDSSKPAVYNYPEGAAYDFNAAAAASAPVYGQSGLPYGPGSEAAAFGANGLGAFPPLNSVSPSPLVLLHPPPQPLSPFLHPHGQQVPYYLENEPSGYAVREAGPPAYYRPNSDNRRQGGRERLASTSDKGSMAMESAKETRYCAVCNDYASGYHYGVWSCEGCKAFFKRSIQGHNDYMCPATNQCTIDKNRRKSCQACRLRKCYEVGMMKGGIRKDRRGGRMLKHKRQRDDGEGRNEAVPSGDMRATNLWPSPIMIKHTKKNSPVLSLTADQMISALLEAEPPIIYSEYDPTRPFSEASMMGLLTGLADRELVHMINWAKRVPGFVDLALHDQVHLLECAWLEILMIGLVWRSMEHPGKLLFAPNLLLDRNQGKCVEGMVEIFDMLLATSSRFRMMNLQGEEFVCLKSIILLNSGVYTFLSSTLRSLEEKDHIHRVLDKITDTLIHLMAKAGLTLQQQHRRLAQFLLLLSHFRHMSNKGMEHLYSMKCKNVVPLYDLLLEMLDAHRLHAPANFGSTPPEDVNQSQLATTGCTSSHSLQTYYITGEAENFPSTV
Method: La nature irréversible de l'intéraction du composé 12 avec le récepteur a été démontrée en incubant un extrait nucléaire d'utérus de brebis en présence de molarités variables de complexe 12. A la fin du temps . d'incubation, l'hormone libre, présente dans le milieu, est éliminée par traitement au charbon dextran. Les fractions d'extrait nucléaire sont ensuite incubées à 20°C pendant 17 h. en présence de 10 nM d'oestradiol tritié. La fraction d'oestradiol tritiée liée (qui représente la quantité de récepteur qui n'a pas été marquée de façon covalente) est déterminée après précipitation des fractions liées au sulfate de protamine (9b). Les résultats sont rassemblés dans le tableau suivant

[5] = biological target: T3, Récepteur des glucocorticoîdes (Homo sapiens, UniProt P04150); conditions: whole cells; cited from earlier work
T3 sequence (P04150 1-777): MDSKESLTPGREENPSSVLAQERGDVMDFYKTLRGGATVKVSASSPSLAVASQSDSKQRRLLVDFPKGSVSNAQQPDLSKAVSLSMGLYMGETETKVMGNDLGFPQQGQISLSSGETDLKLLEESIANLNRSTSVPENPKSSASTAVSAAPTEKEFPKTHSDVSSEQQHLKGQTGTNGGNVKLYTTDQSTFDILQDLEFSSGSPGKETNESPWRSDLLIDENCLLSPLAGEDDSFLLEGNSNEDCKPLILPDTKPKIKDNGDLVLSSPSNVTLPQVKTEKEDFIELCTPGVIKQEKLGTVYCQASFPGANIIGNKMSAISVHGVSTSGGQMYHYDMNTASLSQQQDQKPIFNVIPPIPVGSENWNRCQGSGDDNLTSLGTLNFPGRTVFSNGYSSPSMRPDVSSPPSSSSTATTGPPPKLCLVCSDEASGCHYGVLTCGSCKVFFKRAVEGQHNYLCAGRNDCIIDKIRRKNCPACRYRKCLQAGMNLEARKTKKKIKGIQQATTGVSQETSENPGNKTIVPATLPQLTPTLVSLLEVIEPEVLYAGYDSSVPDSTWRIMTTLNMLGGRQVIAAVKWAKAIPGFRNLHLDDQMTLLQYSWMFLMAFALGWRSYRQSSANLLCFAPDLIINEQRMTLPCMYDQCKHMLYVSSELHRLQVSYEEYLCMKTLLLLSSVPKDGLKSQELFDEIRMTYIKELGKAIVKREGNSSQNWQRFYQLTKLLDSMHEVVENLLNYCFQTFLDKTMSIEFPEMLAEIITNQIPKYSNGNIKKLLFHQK

C[C@]12CC[C@@H]3c4ccc(O)cc4CC[C@H]3[C@@H]1CC[C@@]2(O)c1ccccc1 [[17α-C6H5]-17β-oestradiol]
affinité relative de liaison (A.R.L) [1]: 25%

CCC(=O)[C@@]1(C)CC[C@H]2[C@@H]3CCC4=CC(=O)CCC4=C3CC[C@@]21C [compound 1, R5020]
Marquage [2]: 15%

C[C@]12C[C@H](CCl)[C@@H]3c4ccc(O)cc4CC[C@H]3[C@@H]1CC[C@@H]2O [compound 6, chlorométhyl 11β-oestradiol]
marqueur d'affinité du récepteur de l'oestradiol [3]: n'en étant pas un

CC12CCC3c4ccc(O)cc4CCC3C1CCC2(O)[c-]1cccc1.[Fe+2].c1cc[cH-]c1 (stereo not drawn) [compound 12, 17α-Ferrocényl-17β-oestradiol]
% d'inhibition de la liaison de l'oestradiol ([4]; incubation molarity 2 nM): 50%
% d'inhibition de la liaison de l'oestradiol ([4]; incubation molarity 5 nM): 71%
% d'inhibition de la liaison de l'oestradiol ([4]; incubation molarity 10 nM): 81%
affinité relative de liaison (A.R.L) [1]: 13%

Dexaméthasone-mésylate-21 [compound 2]
liaison non-spécifique [5]: Taux élevé de liaison non-spécifique

azide de l'hexestrol [compound 3]
efficacité d'inactivation ([3]; photochemical route): 10-15%
